For orientation: IC50 means the concentration that inhibits the measured activity by half.

23 compounds from US20240360151A1 (SANOFI, priority 2023, published 2024) can be followed below.

Assay [1] relates to NF-kB pathway (TNF-α secretion by THP-1 cells). Nature of the assay: TNF-α secretion assay in LPS-stimulated THP-1 cells, Lumit immunoassay. Format: cell-based, human. As to conditions: Homo sapiens, THP-1, 3 h, monocytic THP-1 cells, LPS 10 ng/mL, relative IC50, 10 concentrations, geometric mean. In a few lines: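 TNF-α release was quantified directly in the cell plate by Lumit immunoassay after a 3-h, 10 ng/mL LPS trigger of compound-treated THP-1 cells (RPMI, 5% FBS). Percent inhibition versus no-compound and unstimulated controls fed a 4-parameter logistic fit over 10 concentrations, giving geometric-mean relative IC50.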

Assay [2] has as its target T1, NLRP3 inflammasome (Homo sapiens, UniProt Q96P20).
T1 construct: endogenous in cells; host or cells: THP-1 monocytic cells
Nature of the assay: IL-1β secretion assay (NLRP3 IC50) in LPS-primed, nigericin-activated THP-1 cells, HTRF. Format: cell-based. As to conditions: monocytic THP-1 cells; LPS 10 ng/mL 3 h priming, then compound + nigericin 10 μM 2 h; relative IC50, 10 concentrations, geometric mean. In a few lines:
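IL-1β in supernatant read by HTRF after 2 h co-incubation of compound (0.1% DMSO, 10 concentrations, 1:3 series) with nigericin at 10 μM final, following 3 h LPS (10 ng/mL) priming of THP-1 monocytes at 37° C. Inhibition normalised to unactivated and no-compound controls; geometric-mean relative IC50 from 4-parameter logistic model.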
In general terms: Time-resolved FRET reads energy transfer from a long-lived donor to a nearby acceptor.

T1 sequence (Q96P20 whole entry): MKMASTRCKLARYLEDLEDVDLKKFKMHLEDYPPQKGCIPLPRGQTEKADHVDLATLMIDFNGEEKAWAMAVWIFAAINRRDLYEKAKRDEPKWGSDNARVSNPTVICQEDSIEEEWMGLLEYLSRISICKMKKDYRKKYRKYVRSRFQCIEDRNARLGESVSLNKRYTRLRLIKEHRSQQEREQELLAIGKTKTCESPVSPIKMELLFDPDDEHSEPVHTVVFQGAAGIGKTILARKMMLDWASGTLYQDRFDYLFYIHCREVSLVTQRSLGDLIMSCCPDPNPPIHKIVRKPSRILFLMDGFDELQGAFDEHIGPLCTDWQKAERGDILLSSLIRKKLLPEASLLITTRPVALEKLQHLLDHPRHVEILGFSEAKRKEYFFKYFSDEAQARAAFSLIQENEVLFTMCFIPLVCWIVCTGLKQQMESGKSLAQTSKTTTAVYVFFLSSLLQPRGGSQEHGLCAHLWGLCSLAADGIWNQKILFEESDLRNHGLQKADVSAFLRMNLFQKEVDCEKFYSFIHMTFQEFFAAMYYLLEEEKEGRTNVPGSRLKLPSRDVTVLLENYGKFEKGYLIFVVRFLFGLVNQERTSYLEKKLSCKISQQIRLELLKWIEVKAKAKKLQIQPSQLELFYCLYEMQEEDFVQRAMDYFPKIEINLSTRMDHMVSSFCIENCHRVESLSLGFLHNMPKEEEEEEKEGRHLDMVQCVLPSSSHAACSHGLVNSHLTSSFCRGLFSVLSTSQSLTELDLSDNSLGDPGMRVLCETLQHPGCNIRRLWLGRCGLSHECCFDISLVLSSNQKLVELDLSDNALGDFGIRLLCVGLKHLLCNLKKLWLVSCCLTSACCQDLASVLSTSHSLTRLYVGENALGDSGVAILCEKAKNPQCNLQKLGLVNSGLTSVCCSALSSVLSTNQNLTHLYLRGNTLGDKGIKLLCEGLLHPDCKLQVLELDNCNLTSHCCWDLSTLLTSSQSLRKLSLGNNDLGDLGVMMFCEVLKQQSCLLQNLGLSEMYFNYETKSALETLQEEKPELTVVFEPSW

Take `Cc1cc(Cl)cc(O)c1-c1ccc(N2C[C@@H](O)CC2=O)nn1` [Example 130, (4S)-1-[6-(4-chloro-2-hydroxy-6-methyl-phenyl)pyridazin-3-yl]-4-hydroxy-pyrrolidin-2-one]: the IC50 is greater than 10000 nM in assay [1] and 99 nM in assay [2].
For the compound `Cc1cc(C)c(-c2ccc(N3C[C@@H](N)CC3=O)nn2)c(O)c1` [Example 131, (4S)-4-amino-1-[6-(2-hydroxy-4,6-dimethyl-phenyl)pyridazin-3-yl]pyrrolidin-2-one], the IC50 in assay [1] is greater than 10000 nM; in assay [2], 387 nM.
For the compound `Cc1cc(C(F)(F)F)cc(O)c1-c1ccc(N2C[C@H](O)CC2=O)nn1` [Example 132, (4R)-4-hydroxy-1-[6-[2-hydroxy-6-methyl-4-(trifluoromethyl)phenyl]pyridazin-3-yl]pyrrolidin-2-one], the concentration for half-maximal inhibition (IC50) was greater than 10000 nM in assay [1] and 362 nM in assay [2].
For `Cc1cc(-c2c(C)cc(Cl)cc2O)nnc1N1CCO[C@H](CO)C1` [Example 133, 5-chloro-2-[6-[(2S)-2-(hydroxymethyl)morpholin-4-yl]-5-methyl-pyridazin-3-yl]-3-methyl-phenol], the IC50 in assay [1] was greater than 10000 nM; in assay [2], 68 nM.
On the same counts, the results for `Cc1cc(C(F)F)cc(O)c1-c1ccc(N2CCO[C@H](CO)C2)nn1` [Example 134, 5-(difluoromethyl)-2-[6-[(2S)-2-(hydroxymethyl)morpholin-4-yl]pyridazin-3-yl]-3-methyl-phenol] are greater than 10000 nM and 71 nM.
For `Cc1ccc(C)c(-c2ccc(N3CCO[C@H](CO)C3)nn2)c1O` [Example 141, 2-[6-[(2S)-2-(hydroxymethyl)morpholin-4-yl]pyridazin-3-yl]-3,6-dimethylphenol], in that order: greater than 10000 nM and 131 nM.
For `Cc1ccc(-c2nnc(N3CCO[C@H](CO)C3)cc2C(F)F)c(O)c1` [Example 144, 2-[4-(difluoromethyl)-6-[(2S)-2-(hydroxymethyl)morpholin-4-yl]pyridazin-3-yl]-5-methyl-phenol], in that order: greater than 10000 nM and 151 nM.
In the case of `OC[C@@H]1CN(c2cc(C(F)F)c(-c3ccc(Cl)cc3O)nn2)CCO1` [Example 145, 5-chloro-2-[4-(difluoromethyl)-6-[(2S)-2-(hydroxymethyl)morpholin-4-yl]pyridazin-3-yl]phenol], the figures for the 50% inhibitory concentration (IC50) in assay [1] and in assay [2] were greater than 10000 nM and 34 nM, respectively.
On the same counts, the results for `Cc1cc(N2CCO[C@H](CO)C2)nnc1-c1c(C)cc(Cl)cc1O` [Example 149, 5-chloro-2-[6-[(2S)-2-(hydroxymethyl)morpholin-4-yl]-4-methyl-pyridazin-3-yl]-3-methyl-phenol] are greater than 10000 nM and 52 nM.
With `Cc1cc(O)c(-c2ccc(N3CCO[C@H](CO)C3)nn2)c(C(F)F)c1` [Example 153, 3-(difluoromethyl)-2-[6-[(2S)-2-(hydroxymethyl)morpholin-4-yl]pyridazin-3-yl]-5-methyl-phenol], the values for the IC50 in assay [1] and in assay [2] were greater than 10000 nM and 47 nM, respectively.
On the same counts, the results for `Cc1ccc(-c2nnc(N3CCO[C@H](CO)C3)cc2C(F)(F)F)c(O)c1` [Example 155, 2-[6-[(2S)-2-(hydroxymethyl)morpholin-4-yl]-4-(trifluoromethyl)pyridazin-3-yl]-5-methyl-phenol] are greater than 10000 nM and 461 nM.
For `Cc1cc(C)c(-c2cc(C#N)c(N3CCO[C@H](CO)C3)nn2)c(O)c1` [Example 158, 6-(2-hydroxy-4,6-dimethyl-phenyl)-3-[(2S)-2-(hydroxymethyl)morpholin-4-yl]pyridazine-4-carbonitrile], the IC50 was greater than 10000 nM in assay [1] and 85 nM in assay [2].
With `Cc1cc(C(F)(F)F)cc(O)c1-c1cc(C#N)c(N2CCO[C@H](CO)C2)nn1` [Example 159, 3-[(2S)-2-(hydroxymethyl)morpholin-4-yl]-6-[2-hydroxy-6-methyl-4-(trifluoromethyl)phenyl]pyridazine-4-carbonitrile], the values for the IC50 in assay [1] and in assay [2] were greater than 10000 nM and 43 nM, respectively.
For `OC[C@@H]1CN(c2cc(C(F)(F)F)c(-c3ccc(Cl)cc3O)nn2)CCO1` [Example 160, 5-chloro-2-[6-[(2S)-2-(hydroxymethyl)morpholin-4-yl]-4-(trifluoromethyl)pyridazin-3-yl]phenol], in that order: greater than 10000 nM and 171 nM.
On the same counts, the results for `Oc1cc(Cl)cc(Cl)c1-c1ccc(N2CCOC(CF)C2)nn1` (stereo not shown) [Example 161, 3,5-dichloro-2-[6-[2-(fluoromethyl)morpholin-4-yl]pyridazin-3-yl]phenol] are greater than 10000 nM and 28 nM.
Regarding `Cc1cc(C)c(-c2ccc(N3CCOc4ccc(O)cc43)nn2)c(O)c1` [Example 162, 4-[6-(2-hydroxy-4,6-dimethyl-phenyl)pyridazin-3-yl]-2,3-dihydro-1,4-benzoxazin-6-ol], the IC50 in assay [1] is greater than 10000 nM; in assay [2], 10 nM.
For `Cc1cc(Cl)cc(O)c1-c1cc(C#N)c(N2CCO[C@H](CO)C2)nn1` [Example 163, 6-(4-chloro-2-hydroxy-6-methyl-phenyl)-3-[(2S)-2-(hydroxymethyl)morpholin-4-yl]pyridazine-4-carbonitrile], in that order: greater than 10000 nM and 7 nM.
On the same counts, the results for `CC(=O)NC[C@@H]1CCCN(c2ccc(-c3c(C)cc(C(F)(F)F)cc3O)nn2)C1` [Example 164, N-[[(3S)-1-[6-[2-hydroxy-6-methyl-4-(trifluoromethyl)phenyl]pyridazin-3-yl]-3-piperidyl]methyl]acetamide] are greater than 10000 nM and 81 nM.
For `[2H]C([2H])(O)[C@@H]1CN(c2ccc(-c3c(C)cc(C)cc3O)nn2)CCO1` [Example 165, 2-[6-[(2S)-2-[dideuterio(hydroxy)methyl]morpholin-4-yl]pyridazin-3-yl]-3,5-dimethylphenol], in that order: 5620 nM and 42 nM.
Take `CC(=O)NC[C@H]1CCCN(c2ccc(-c3c(C)cc(C(F)(F)F)cc3O)nn2)C1` [Example 167, N-[[(3R)-1-[6-[2-hydroxy-6-methyl-4-(trifluoromethyl)phenyl]pyridazin-3-yl]-3-piperidyl]methyl]acetamide]: the IC50 was greater than 10000 nM in assay [1] and 309 nM in assay [2].
For `[2H]C([2H])(O)[C@@H]1CN(c2ccc(-c3c(C)cc(Cl)cc3O)nn2)CCO1` [Example 169, 5-chloro-2-[6-[(2S)-2-[dideuterio(hydroxy)methyl]morpholin-4-yl]pyridazin-3-yl]-3-methylphenol], in that order: greater than 10000 nM and 8 nM.
Regarding `Cc1cc(C)c(-c2cc(C(F)F)c(N3CCO[C@H](CO)C3)nn2)c(O)c1` [Example 170, 2-[5-(difluoromethyl)-6-[(2S)-2-(hydroxymethyl)morpholin-4-yl]pyridazin-3-yl]-3,5-dimethyl-phenol], the IC50 in assay [1] is greater than 10000 nM; in assay [2] it was 12 nM.
Regarding `Cc1cc(Cl)cc(O)c1-c1cc(C(F)F)c(N2CCO[C@H](CO)C2)nn1` [Example 171, 5-chloro-2-[5-(difluoromethyl)-6-[(2S)-2-(hydroxymethyl)morpholin-4-yl]pyridazin-3-yl]-3-methyl-phenol], the half-maximal inhibitory concentration (IC50) in assay [1] was greater than 10000 nM; in assay [2] it was 7 nM.
